Where two headings read alike, the source gives them in different places. Bounds are passed on as bounds.

The text below walks through data of patent publication US7858635B2 (priority 2005, dated 2010).

One assay deals with T1, M4 muscarinic receptor (Homo sapiens, UniProt P08173).
T1 construct: expressed in transfected cells; host or cells: CHO cells (M4-CHO, under puromycin, zeocin and blasticidin selection)
T1 sequence (P08173 1-479): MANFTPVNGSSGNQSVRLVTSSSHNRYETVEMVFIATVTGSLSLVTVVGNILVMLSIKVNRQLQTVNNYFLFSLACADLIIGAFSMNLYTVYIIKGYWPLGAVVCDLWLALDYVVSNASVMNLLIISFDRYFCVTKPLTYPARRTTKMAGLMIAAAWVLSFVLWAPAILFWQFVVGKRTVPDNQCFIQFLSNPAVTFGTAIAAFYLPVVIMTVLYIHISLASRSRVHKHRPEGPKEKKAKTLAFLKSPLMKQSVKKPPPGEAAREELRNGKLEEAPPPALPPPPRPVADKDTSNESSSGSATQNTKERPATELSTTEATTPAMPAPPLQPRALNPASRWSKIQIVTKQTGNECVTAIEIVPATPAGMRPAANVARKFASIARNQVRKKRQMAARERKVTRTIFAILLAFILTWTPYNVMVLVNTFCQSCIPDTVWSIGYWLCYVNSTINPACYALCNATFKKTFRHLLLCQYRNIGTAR
In words: Functional mobilization of intracellular calcium (FLIPR, Fluo-3), M4-CHO cells. Format: cell-based. The note with it: for Emax: read-out: M4 Efficacy. The method, boiled down: (§1)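 CHO lines stably carrying the muscarinic subtype, dye-loaded with Fluo-3 at 37° C for 60-90 min, receive test compound in 0.5% DMSO. Agonist effects are read directly; antagonist effects against carbachol at EC80 after 15 min pre-incubation.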

A further assay addresses T2, M1 muscarinic receptor (Homo sapiens, UniProt P11229).
T2 construct: expressed in transfected cells; host or cells: CHO cells (M1-CHO, under zeocin and G418 selection)
T2 sequence (P11229 1-460): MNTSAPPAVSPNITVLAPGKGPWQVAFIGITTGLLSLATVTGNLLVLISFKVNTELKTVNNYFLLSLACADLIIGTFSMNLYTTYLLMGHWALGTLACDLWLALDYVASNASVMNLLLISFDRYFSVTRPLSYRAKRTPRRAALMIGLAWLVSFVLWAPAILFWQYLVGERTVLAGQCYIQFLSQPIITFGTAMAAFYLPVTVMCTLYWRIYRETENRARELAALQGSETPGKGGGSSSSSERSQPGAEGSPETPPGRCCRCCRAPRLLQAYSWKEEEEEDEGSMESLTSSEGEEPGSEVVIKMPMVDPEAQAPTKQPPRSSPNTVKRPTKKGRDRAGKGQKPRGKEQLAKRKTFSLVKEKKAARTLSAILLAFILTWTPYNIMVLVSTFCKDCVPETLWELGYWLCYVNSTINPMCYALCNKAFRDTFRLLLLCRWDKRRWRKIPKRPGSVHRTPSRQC
Nature of the assay: Functional mobilization of intracellular calcium (FLIPR, Fluo-3), M1-CHO cells. Format: cell-based. The settings on record: for Emax: read-out: M1 Efficacy. The method, boiled down: as §1

Setting [1] is: compound nos. 1-454, 100% efficacy is the maximum response obtained with the Carbachol control.
Where [2] appears, read: compound nos. 1-454, M4-CHO cells, calcium mobilization.
Setting [3] is: compound nos. 1-454, M1-CHO cells, calcium mobilization.
The mark [4] stands for this setting: compound nos. 455-509, 100% efficacy is the maximum response obtained with the Carbachol control.

Turning to `O=C(C1CCC1)N1C2CCC1CC(N1CCC3(CC1)COc1ccc(F)cc13)C2` (stereo not shown) [compound 134], the figures for the Emax on M4 muscarinic receptor (setting [1]) and at M1 muscarinic receptor (setting [1]) were under 55% and over 85%, respectively. Also, at M4 muscarinic receptor (setting [2]), the “M4 Activity” value was “++ (activity was measured to be between 0.1 μM and 4.0 μM)”. Also, the “M1 Activity” value at M1 muscarinic receptor (setting [3]) is recorded as “+++ (activity was measured to be less than or equal to 0.7 μM)”.

As for `O=C(OC1CCCC1)N1C2CCC1CC(N1CCC3(CCc4ccccc43)CC1)C2` (stereo not shown) [compound 258], the Emax at M4 muscarinic receptor (setting [1]) is under 55%; on M1 muscarinic receptor (setting [1]) it was 65 to 85%. The “M4 Activity” value on M4 muscarinic receptor (setting [2]) was “+ (activity was measured to be greater than or equal to 4.0 μM)”. Moreover, the “M1 Activity” value on M1 muscarinic receptor (setting [3]) is reported as “+ (activity was measured to be greater than or equal to 3.0 μM)”.

Turning to `CCOC(=O)N1CCC(N2CCC3(CC2)CN(C(C)=O)c2ccc(CC)cc23)CC1` [compound 137], the Emax on M4 muscarinic receptor (setting [1]) is over 70%; at M1 muscarinic receptor (setting [1]), over 85%. Besides, the “M4 Activity” value on M4 muscarinic receptor (setting [2]) is reported as “+ (activity was measured to be greater than or equal to 4.0 μM)”. For the same compound, the “M1 Activity” value at M1 muscarinic receptor (setting [3]) is given as “+++ (activity was measured to be less than or equal to 0.7 μM)”.

`CC(=O)N[C@H]1CC2(CCN(C3CCC(c4ccccc4)CC3)CC2)c2ccccc21` (stereo partly shown) [compound 273]: the Emax at M4 muscarinic receptor (setting [1]) is over 70%; on M1 muscarinic receptor (setting [1]) it was over 85%. On M4 muscarinic receptor (setting [2]), the “M4 Activity” value was “++ (activity was measured to be between 0.1 μM and 4.0 μM)”. On M1 muscarinic receptor (setting [3]), the “M1 Activity” value is “+++ (activity was measured to be less than or equal to 0.7 μM)”.

`CCOC(=O)N1C2CCC1CC(N1CCC3(CC1)CN(C(=O)c1cc(C)nn1C(C)(C)C)c1ccc(F)cc13)C2` (stereo not shown) [compound 189]: the Emax on M4 muscarinic receptor (setting [1]) fell in the range of 55 to 70%; on M1 muscarinic receptor (setting [1]) it was 65 to 85%. Further, on M4 muscarinic receptor (setting [2]), the “M4 Activity” value is “+ (activity was measured to be greater than or equal to 4.0 μM)”. Also, the “M1 Activity” value at M1 muscarinic receptor (setting [3]) is “+++ (activity was measured to be less than or equal to 0.7 μM)”.

Consider `CC(=O)NC1CC2(CCN(C[C@H]3C[C@H]4CC[C@H]3C4)CC2)c2ccccc21` (stereo partly shown) [compound 161], for which the Emax was over 70% on M4 muscarinic receptor (setting [1]) and over 85% at M1 muscarinic receptor (setting [1]). Further, at M4 muscarinic receptor (setting [2]), the “M4 Activity” value is “+ (activity was measured to be greater than or equal to 4.0 μM)”. Also, the “M1 Activity” value at M1 muscarinic receptor (setting [3]) was “++ (activity was measured to be between 0.7 μM and 3.0 μM)”.

For the compound `CCOC(=O)N1CCC(N2CCC3(CC2)CN(C(C)=O)c2ccc(-c4cccc(F)c4)cc23)CC1` [compound 84], the Emax on M4 muscarinic receptor (setting [1]) lay within 55 to 70%; on M1 muscarinic receptor (setting [1]), 65 to 85%. Besides, the “M4 Activity” value at M4 muscarinic receptor (setting [2]) was “++ (activity was measured to be between 0.1 μM and 4.0 μM)”. The “M1 Activity” value at M1 muscarinic receptor (setting [3]) was “+++ (activity was measured to be less than or equal to 0.7 μM)”.

As to `COCCOC(=O)N1CC2(CCN(C3CC4CCC(C3)N4C(=O)OC3CCC3)CC2)c2cc(F)ccc21` (stereo not shown) [compound 195], the Emax on M4 muscarinic receptor (setting [1]) was under 55%; on M1 muscarinic receptor (setting [1]), under 65%. Also, the “M4 Activity” value on M4 muscarinic receptor (setting [2]) is “+ (activity was measured to be greater than or equal to 4.0 μM)”. Besides, on M1 muscarinic receptor (setting [3]), the “M1 Activity” value is “++ (activity was measured to be between 0.7 μM and 3.0 μM)”.

Take `CCC1CCC(N2CCC3(CC2)C[C@H](NC(C)=O)c2ccccc23)CC1` (stereo partly shown) [compound 367]: the Emax is under 55% on M4 muscarinic receptor (setting [1]) and under 65% at M1 muscarinic receptor (setting [1]). Further, the “M4 Activity” value on M4 muscarinic receptor (setting [2]) is given as “+ (activity was measured to be greater than or equal to 4.0 μM)”. In addition, the “M1 Activity” value at M1 muscarinic receptor (setting [3]) is “+ (activity was measured to be greater than or equal to 3.0 μM)”.

On to `CC(=O)N1CCC2(CCN(C3CCN(c4cnc5ccccc5n4)CC3)CC2)c2ccccc21` [compound 456], for which the Emax at M4 muscarinic receptor (setting [4]) is 25 to 100%; on M1 muscarinic receptor (setting [4]), over 100%. For the same compound, on M4 muscarinic receptor (compounds 455-509), the “M4 Activity” value was “++ (activity was measured to be between 2.0 μM and 5.0 μM)”. For the same compound, at M1 muscarinic receptor (compounds 455-509), the “M1 Activity” value was “++ (activity was measured to be between 2.0 μM and 5.0 μM)”.

In the case of `CCOC(=O)N1C2CCC1CC(N1CCC3(CC1)CC(NC(C)=O)c1ccccc13)C2` (stereo not shown) [compound 318], the Emax is over 70% on M4 muscarinic receptor (setting [1]) and 65 to 85% on M1 muscarinic receptor (setting [1]). Besides, the “M4 Activity” value on M4 muscarinic receptor (setting [2]) is listed as “+++ (activity was measured to be less than or equal to 0.1 μM)”. Moreover, at M1 muscarinic receptor (setting [3]), the “M1 Activity” value is reported as “+++ (activity was measured to be less than or equal to 0.7 μM)”.

On to `Cc1ccc2c(c1)C1(CCN(CC3CC4CCC3C4)CC1)CN2C(=O)OC(C)(C)C` (stereo not shown) [compound 382], for which the “M4 Activity” value at M4 muscarinic receptor (compound nos. 1-454) was “+ (activity was measured to be greater than or equal to 4.0 μM)”. Also, the Emax lay in the range of 55 to 70% at M4 muscarinic receptor (setting [1]) and 65 to 85% on M1 muscarinic receptor (setting [1]). Besides, at M1 muscarinic receptor (compound nos. 1-454), the “M1 Activity” value is listed as “+++ (activity was measured to be less than or equal to 0.7 μM)”.

As to `CCOC(=O)N1CCC(N2CCC3(CC2)CN(C(=O)O[C@H]2CCOC2)c2ccc(F)cc23)CC1` [compound 49], the “M4 Efficacy” value at M4 muscarinic receptor (setting [1]) was “++ (efficacy was calculated to be between 70% and 55%)”. Further, the “M4 Activity” value on M4 muscarinic receptor (setting [2]) is recorded as “+++ (activity was measured to be less than or equal to 0.1 μM)”. On M1 muscarinic receptor (setting [1]), the “M1 Efficacy” value is given as “+++ (efficacy was calculated to be 85% or more)”. The “M1 Activity” value on M1 muscarinic receptor (setting [3]) was “+++ (activity was measured to be less than or equal to 0.7 μM)”.

In the case of `Clc1ccc2c(c1)C1(CCO2)CCN([C@@H]2C[C@@H]3CC[C@@H]2C3)CC1` [compound 369], the Emax is over 70% at M4 muscarinic receptor (setting [1]) and over 85% at M1 muscarinic receptor (setting [1]). In addition, at M4 muscarinic receptor (setting [2]), the “M4 Activity” value is “++ (activity was measured to be between 0.1 μM and 4.0 μM)”. Besides, the “M1 Activity” value at M1 muscarinic receptor (setting [3]) is listed as “+++ (activity was measured to be less than or equal to 0.7 μM)”.

Turning to `CN(C)C(=O)N1CC2(CCN(C3CCN(c4ncccn4)CC3)CC2)c2cc(F)ccc21` [compound 445], the “M4 Activity” value on M4 muscarinic receptor (compound nos. 1-454) is reported as “+++ (activity was measured to be less than or equal to 0.1 μM)”. Moreover, the Emax at M4 muscarinic receptor (setting [1]) lay in the range of 55 to 70%; at M1 muscarinic receptor (setting [1]) it was 65 to 85%. The “M1 Activity” value on M1 muscarinic receptor (compound nos. 1-454) is “++ (activity was measured to be between 0.7 μM and 3.0 μM)”.

On to `CC(=O)N1CC2(CCN(CC3CC4CCC3CC4)CC2)c2cc(F)ccc21` (stereo not shown) [compound 366], for which the Emax was under 55% at M4 muscarinic receptor (setting [1]) and under 65% at M1 muscarinic receptor (setting [1]). For the same compound, the “M4 Activity” value on M4 muscarinic receptor (setting [2]) was “+ (activity was measured to be greater than or equal to 4.0 μM)”. The “M1 Activity” value at M1 muscarinic receptor (setting [3]) is “++ (activity was measured to be between 0.7 μM and 3.0 μM)”.

As to `CCOC(=O)N1CCC(N2CCC3(CC2)CN(C(=O)O[C@H]2CCOC2)c2ccc(F)cc23)CC1` [compound 428], on M4 muscarinic receptor (compound nos. 1-454), the “M4 Activity” value is “+ (activity was measured to be greater than or equal to 4.0 μM)”. Besides, the Emax at M4 muscarinic receptor (setting [1]) is under 55%; at M1 muscarinic receptor (setting [1]), under 65%. For the same compound, on M1 muscarinic receptor (compound nos. 1-454), the “M1 Activity” value was “++ (activity was measured to be between 0.7 μM and 3.0 μM)”.

For `CC(=O)N[C@H]1CC2(CCN(C3CCOCC3)CC2)c2ccccc21` [compound 206], the Emax was under 55% on M4 muscarinic receptor (setting [1]) and 65 to 85% on M1 muscarinic receptor (setting [1]). Also, at M4 muscarinic receptor (setting [2]), the “M4 Activity” value is “+ (activity was measured to be greater than or equal to 4.0 μM)”. Besides, the “M1 Activity” value on M1 muscarinic receptor (setting [3]) is recorded as “+++ (activity was measured to be less than or equal to 0.7 μM)”.

Take `CCOC(=O)N1CCC(N2CCC3(CC2)CN(C(C)=O)c2ccc(-c4ccccc4)cc23)CC1` [compound 126]: the Emax at M4 muscarinic receptor (setting [1]) was under 55%; at M1 muscarinic receptor (setting [1]), under 65%. In addition, the “M4 Activity” value on M4 muscarinic receptor (setting [2]) is on record as “+ (activity was measured to be greater than or equal to 4.0 μM)”. The “M1 Activity” value at M1 muscarinic receptor (setting [3]) is “+++ (activity was measured to be less than or equal to 0.7 μM)”.
